Test results reported in patent US20080293696A1, “2-Aminoarylcarboxamides Useful as Cancer Chemotherapeutic Agents” (Bayer Pharmaceuticals Corporation, priority 2004, published 2008).
Counter-ions that a name gives are not always drawn.

system: PAKT/PKB (p-(S473) AKT) in H209 small cell lung carcinoma cells stimulated with Stem Cell Factor; assay: PAKT/PKB Cytoblot Assay with H209 cells (SCF-stimulated p-(S473) AKT); type: cell-based; settings: Homo sapiens, NCI-H209, compound 1 hour, SCF 25 ng/mL 5 minutes, group: between 500 nM and 1 μM (units in value)
Protocol: PAKT/PKB Cytoblot Assay Protocol with H209 Cells
H209 small cell lung carcinoma cells in log phase were plated at 50,000 cells/well in 96-well poly-lysine coated, clear bottom/black-sided plates (BD Cat # 354640) in 100 μl RPMI medium containing 0.1% (w/v) BSA, and incubated overnight at 37° C. in 5% CO2 incubator. The following day, compounds (10 mM stock solutions in DMSO) were added to the plates to generate final concentrations of 0.0, 0.01, 0.03, 0.1, 0.3, 1.0, 3.0 and 10 μM for IC50 determinations and incubated for 1 hour at 37° C. Cells were then left untreated or stimulated with Stem Cell Factor (SCF: Biosource Cat # PHC2116) at a final concentration of 25 ng/mL for 5 minutes at 37° C. in 5% CO2 incubator. The media was then removed using a vacuum manifold and the cells were washed once with Tris Buffered Saline (TBS).
Cells were then fixed by adding 200 μl of cold 3.7% (v/v) formaldehyde in TBS to each well for 15 minutes at 4° C. After removal of the formaldehyde, the cells were treated with the addition of 50 μl of methanol (at −20° C.) to each well for 5 minutes. After removal of the methanol, […] of 1% (w/v) BSA in TBS was added to each well to block non-specific antibody binding sites and the plate was incubated at room temperature for 30 minutes.
After removal of the blocking buffer, 50 μl of p-(S473) AKT rabbit polyclonal antibody (Cell Signaling Cat # 9277S) was added at a dilution of 1:250 in 0.1% (w/v) BSA in TBS, and the plate was incubated at room temperature for 1 hour. Plates were then washed 3 times with cold TBS containing 0.05% (v/v) Tween 20 (TBS-T) and […] of Horseradish peroxidase (HRP)-conjugated goat-anti-rabbit antibody (Amersham Cat # NA934V) at a dilution of 1:250 in TBS-T was added and the plate was incubated at room temperature for 1 h. After washing with ice-cold TBS-T four times, 100 μl of Enhanced Chemiluminescence (ECL) reagent (Amersham Cat# RPN2209) was added to each well and mixed on a mini-orbital shaker for 1 min. The plate was then read on a Perkin Elmer Victor 5 Multilabel Counter (#1420-0421).

Question: With `O=C(NCCc1cnc[nH]1)c1cc(CNc2ccccc2C(=O)Nc2ccc3c(c2)OC(F)(F)O3)ccn1` [Example 94, 4-{[(2-{[(2,2-difluoro-1,3-benzodioxol-5-yl)amino]carbonyl}phenyl)amino]methyl}-N-[2-(1H-imidazol-5-yl)ethyl]pyridine-2-carboxamide] as the compound, how does the IC50 read?
Answer: Its IC50 is 500 to 1000 nM.

Question: With `N#Cc1cc(CNc2cc(F)c(F)cc2C(=O)Nc2ccc3c(c2)OC(F)(F)C(F)(F)O3)ccn1` [Example 38, 2-{[(2-cyanopyridin-4-yl)methyl]amino}-4,5-difluoro-N-(2,2,3,3-tetrafluoro-2,3-dihydro-1,4-benzodioxin-6-yl)benzamide] as the compound, how does the IC50 read?
Answer: Its IC50 is 500 to 1000 nM.

same assay, conditions: Homo sapiens, NCI-H209, compound 1 hour, SCF 25 ng/mL 5 minutes, group: between 1 and 3 μM

Question: For `O=C(Nc1ccc2c(c1)OC(F)(F)O2)c1cc(F)ccc1NCc1ccnc(C2=NCCN2)c1` [Example 41, N-(2,2-difluoro-1,3-benzodioxol-5-yl)-2-({[2-(4,5-dihydro-1H-imidazol-2-yl)pyridin-4-yl]methyl}amino)-5-fluorobenzamide], which IC50 is on record?
Answer: Its IC50 is 1000 to 3000 nM.

Question: `N#Cc1cc(CNc2ccc(F)cc2C(=O)Nc2ccc3c(c2)OC(F)(F)C(F)(F)O3)ccn1` [Example 27, 2-{[(2-cyanopyridin-4-yl)methyl]amino}-5-fluoro-N-(2,2,3,3-tetrafluoro-2,3-dihydro-1,4-benzodioxin-6-yl)benzamide] was tested. Which IC50 did it give?
Answer: The IC50 was 1000 to 3000 nM.

same assay, conditions: Homo sapiens, NCI-H209, compound 1 hour, SCF 25 ng/mL 5 minutes, group: less than 500 nM

Question: Which IC50 does the source give for `O=C(NCc1ccco1)Nc1cc(CNc2ccccc2C(=O)Nc2ccc3c(c2)OC(F)(F)O3)ccn1` [Example 173, N-(2,2-difluoro-1,3-benzodioxol-5-yl)-2-({[2-({[(2-furylmethyl)amino]carbonyl}amino)pyridin-4-yl]methyl}amino)benzamide] here?
Answer: The IC50 was < 500 nM.

Question: How did the IC50 turn out when `COCCCNC(=O)c1cc(CNc2ccccc2C(=O)Nc2ccc3c(c2)OC(F)(F)O3)ccn1` [Example 89, 4-{[(2-{[(2,2-difluoro-1,3-benzodioxol-5-yl)amino]carbonyl}phenyl)amino]methyl}-N-(3-methoxypropyl)pyridine-2-carboxamide] was run?
Answer: The IC50 was < 500 nM.

Question: Which IC50 does the source give for `O=C(Nc1ccc2c(c1)OC(F)(F)C(F)(F)O2)c1cc(F)ccc1NCc1ccncc1` [Example 19, 5-fluoro-2-[(pyridin-4-ylmethyl)amino]-N-(2,2,3,3-tetrafluoro-2,3-dihydro-1,4-benzodioxin-6-yl)benzamide] here?
Answer: Its IC50 is < 500 nM.

Question: `O=C(Nc1ccc2c(c1)OC(F)(F)C(F)(F)O2)c1cnccc1NCc1ccncc1` [Example 14, 4-[(pyridin-4-ylmethyl)amino]-N-(2,2,3,3-tetrafluoro-2,3-dihydro-1,4-benzodioxin-6-yl)nicotinamide] was tested. Which IC50 did it give?
Answer: Its IC50 is < 500 nM.

Question: For `COCCNc1cc(CNc2ccccc2C(=O)Nc2ccc3c(c2)OC(F)(F)O3)ccn1` [Example 135, N-(2,2-difluoro-1,3-benzodioxol-5-yl)-2-[({2-[(2-methoxyethyl)amino]pyridin-4-yl}methyl)amino]benzamide trifluoroacetate], which IC50 is on record?
Answer: Its IC50 is < 500 nM.

Question: How did the IC50 turn out when `CNC(=O)c1cc(CNc2cc(F)ccc2C(=O)Nc2ccc3c(c2)OC(F)(F)C(F)(F)O3)ccn1` [Example 32, 4-{[(5-fluoro-2-{[(2,2,3,3-tetrafluoro-2,3-dihydro-1,4-benzodioxin-6-yl)amino]carbonyl}phenyl)amino]methyl}-N-methylpyridine-2-carboxamide] was run?
Answer: Its IC50 is < 500 nM.

Question: With `CN(C)C(=O)Nc1cc(CNc2ccccc2C(=O)Nc2ccc3c(c2)OC(F)(F)O3)ccn1` [Example 174, N-(2,2-difluoro-1,3-benzodioxol-5-yl)-2-{[(2-{[(dimethylamino)carbonyl]amino}pyridin-4-yl)methyl]amino}benzamide] as the compound, how does the IC50 read?
Answer: The IC50 was < 500 nM.

Question: With `CCNC(=O)c1cc(CNc2ccccc2C(=O)Nc2ccc3c(c2)OC(F)(F)C(F)(F)O3)ccn1` [Example 44, N-ethyl-4-{[(2-{[(2,2,3,3-tetrafluoro-2,3-dihydro-1,4-benzodioxin-6-yl)amino]carbonyl}phenyl)amino]methyl}pyridine-2-carboxamide] as the compound, how does the IC50 read?
Answer: Its IC50 is < 500 nM.

Question: Which IC50 does the source give for `O=C(Nc1ccc2c(c1)OC(F)(F)C(F)(F)O2)c1cccnc1NCc1ccncc1` [Example 12, 2-[(pyridin-4-ylmethyl)amino]-N-(2,2,3,3-tetrafluoro-2,3-dihydro-1,4-benzodioxin-6-yl)nicotinamide] here?
Answer: Its IC50 is < 500 nM.
